Test results reported in US20030186423A1, “Amidase from variovorax” (Degussa AG, priority 2001, published 2003).
One block for each compound: values may come before it.

How the values were obtained:
Type in all cases: biochemical, Variovorax paradoxus
[1] = system: D-amidase; assay: Kinetic cleavage of racemic amino acid amides: enantioselectivity as a function of the conversion
Method: To evaluate the suitability for kinetic cleavage of racemic DL-Tle-NH2, the enantioselectivity was determined as a function of the conversion.
DL-Valin-, DL-leucin- and DL-phenylalaninamide were alos tested in this respect. For this, the enantioselectivity was determined as function of the conversion with partly purified enzyme from Variovorax paradoxus 19-3 after the 1st chromatography step.
(§1) The separation and quantitative determination of the enantiomers D- and L-tert-leucine were carried out by a “chiral derivatization” on the basis of o-phthaldialdehyde (OPA)/N-isobutyryl-L-cysteine or N-isobutyryl-D-cysteine (Brückner, H.; Wittner R. and Godel H. (1991), Fully automated high-performance liquid chromatographic separation of DL-amino acids derivatized with o-Phthaldialdehyde together with N-isopropyl-cysteine. Application to food samples. Anal. Biochem. 144, 204-206). The diastereomeric isoindole derivatives formed were separated on an RP-18 (reversed phase) column and detected by fluorescence. A two-buffer system of aqueous acetate buffer and an acetonitrile/water mixture was used as the mobile phase.

[2] = system: D-amidase; assay: Enzyme test for acid amides, activity by determination of ammonium ions with glutamate dehydrogenase; conditions: substrate 40 mM
Method: The activity was measured by determination of the ammonium ions with glutamate dehydrogenase (Bergmeyer, H. U., and Beutler, H.-O. (1985), Ammonia. In: Methods of Enzymatic Analysis. VCH-Verlag, 3rd edition, vol. 8: 454-461, Weinheim). […] The substrates were employed in the enzyme test at 40 mM, except for succinic acid diamide and adipic acid diamide, each at 10 mM, and benzylamide at 20 mM. Since the activities were determined only at in each case one substrate concentration, relative activities are stated.
(§2) In the conversion of tert-leucinamide (gen. acid amides) by the D-amidase, the formation of ammonia or ammonium ions and tert-leucine (gen. acid) in equimolar amounts occurs. […] The change in concentration of the components participating can be measured in an enzyme test, which comprises incubation of the following test batch for 10-60 minutes at 30° C.
(§3) The enzyme test was started by addition of the substrate and the reaction was stopped by heating at 95° C. for three minutes. The analysis of the reaction products was carried out for ammonium ions by enzymatic determination of ammonium by glutamate dehydrogenase (Bergmeyer, H.,U., and Beutler, H.-O. (1985) Ammonia. In: Methods of Enzymatic Analysis. VCH-Verlag, 3rd edition, vol. 8: 454-461, Weinheim) and for D- and L-tert-leucine by means of HPLC (Bruckner, H., Wittner R., and Godel H., (1991) Fully automated high-performance liquid chromatographic separation of DL-amino acids derivatized with o-phthaldialdehyde together with N-isopropyl-cysteine. Application to food samples. Anal. Biochem. 144(1): 204-206). Batches to which no substrate were added served as controls.
(§4) The enzyme glutamate dehydrogenase (GluDH; E.C.1.4.1.3) converts 2-oxoglutarate into L-glutamate, ammonium ions being consumed and NADH being oxidized to NAD+(Bergmeyer, H.,U. and Beutler, H.-O. (1985), Ammonia. In: Methods of Enzymatic Analysis. VCH-Verlag, 3rd edition, vol. 8: 454-461, Weinheim). The amount of NADH consumed during the reaction is equivalent to the amount of ammonium ions. The change in the concentration of NADH is the measurement parameter and can be determined spectrophotometrically at a wavelength of 340 nm.
The test components were pipetted into cells of plastic (1.5 ml semimicro disposable cells, Brand) and mixed and the extinction at 340 nm was determined after 5 min. 10 μl GluDH were then added, and after the reaction had gone to completion, as a rule after 30 min, the extinction was measured again.

[3] = system: D-amidase; assay: Enzyme test for N-formylated amino acid amides, NH4+ determination with glutamate dehydrogenase
Method: as §4, with “The cleavage of racemic N-formylated amino acid amides was investigated by using the D-amidase according to the invention. The enzyme used was a partly purified D-amidase after the 1st chromatography step. The activity was measured by determining the NH4^+ ions with glutamate dehydrogenase (Bergmeyer, H. U., and Beutler, H.-O. (1985), Ammonia. In: Methods of Enzymatic Analysis. VCH-Verlag, 3rd edition, vol. 8: 454-461, Weinheim). The following substrates were employed in the enzyme test at 10 mM. The enzyme” for “The enzyme”

[4] = system: D-amidase; assay: Enzyme test for amino acid amides and α-hydroxycarboxylic acid amides (HPLC or NH4+ determination); conditions: substrate 40 mM
Method: For prolinamide, and the α-hydroxycarboxylic acid amides lactic acid amide (Lac-NH2) and 2-hydroxy-4-methylmercaptobutyric acid amid (MHA-NH2), the methionine-analogous α-hydroxycarboxylic acid amide, determination of the product with the previous HPLC analysis is not possible. For these substrates, the activity was determined with the aid of NH4^+ determination. […] All the substrates were employed in the enzyme test at 40 mM. In the 4th column, for further comparison the activity for the lower enantiomer has been set at 1 and a relative activity for the preferred enantiomer has been calculated therefrom.
as §2, §3, §1

[5] = system: D-amidase; assay: Specific activity of crude extracts and purified D-amidase for DL-Tle-NH2; conditions: DL-Tle-NH2 as the substrate
Method: as §2, §3

E value ([1]; both series of experiments (partly purified and virtually homogeneous enzyme)): greater than 100
enantioselectivity with respect to D-Tle ([1]; partly purified enzyme after the 1st chromatography step, conversion of greater than 45%): 96.6%
Activity with respect to Tle-NH2 ([2]; DL-Tle-NH2 = 1): 1
Relative act. ([2]; partly purified D-amidase after the 2nd chromatography step (0.51 U/mg)): 0.51 U/mg
Activity with respect to Tle-NH2 ([3]; Table 4, DL-Tle-NH2 = 100): 100%
Relative act. ([3]; Table 4, substrate 10 mM, partly purified D-amidase after the 1st chromatography step): 200 mU/mg
Activity with respect to Tle-NH2 ([4]; DL-Tle-NH2 = 1): 1
Specific activity ([4]; partly purified D-amidase after the 2nd chromatography step (0.56 U/mg), Pro-, Lac-, MHA-NH2 by NH4+ determination): 0.56 U/mg
Specific activity ([5]; D-amidase after the first two purification steps): 0.68 U/mg
Specific activity ([5]; crude extract of E. coli JM 101 expression clones): 80-210 mU/mg
Specific activity ([5]; homogeneously purified D-amidase from Variovorax paradoxus): 1.4 U/mg
SMILES: CC(C)(C)C(N)C(N)=O (racemic) [DL-Tle-NH2, D,L-tert-Leucinamide]

E value ([1]; conversion 3%): 190
ee D-Val ([1]; conversion 3%, partly purified enzyme after the 1st chromatography step): 98.9%
E value ([1]; conversion 15%): 180
ee D-Val ([1]; conversion 15%, partly purified enzyme after the 1st chromatography step): 98.7%
E value ([1]; conversion 29%): 200
ee D-Val ([1]; conversion 29%, partly purified enzyme after the 1st chromatography step): 98.5%
E value ([1]; conversion 42%): 220
ee D-Val ([1]; conversion 42%, partly purified enzyme after the 1st chromatography step): 98.1%
E value ([1]; conversion 50%): 140
ee D-Val ([1]; conversion 50%, partly purified enzyme after the 1st chromatography step): 95.1%
E value ([1]; conversion 57%): 56
ee D-Val ([1]; conversion 57%, partly purified enzyme after the 1st chromatography step): 75.0%
Activity with respect to Tle-NH2 ([3]; Table 5, DL-Val-NH2 = 100): 100%
Relative act. ([3]; Table 5, comparison of valinamide and N-formyl-valinamide): 870 mU/mg
SMILES: CC(C)[C@H](N)C(N)=O (racemic) [DL-Val-NH2, valinamide]
